Measurements reported in patent US5929039A, “Method for treating cardiac dysfunction and pharmaceutical compositions useful therefor” (Baker Medical Research Institute, priority 1993, dated 1999).
pEC50: −log10 of the molar value. Where two headings read alike, the source gives them in different places.

Tests used:
[1] = test system: [3H]-labelled inositol phosphate accumulation; experiment: [3H]-labelled inositol phosphate accumulation in isolated perfused rat hearts under ischaemia and post-ischaemic reperfusion; settings: for average inhibition of [3H]-labelled inositol phosphate accumulation: vs 2 min post-ischaemic reperfusion without neomycin
Procedure: (§1) Adult male sprague dawley rats 250-300 g were used. Where indicated, rats were treated with reserpine (5 mg/kg I.P. for 18 hrs prior to killing) to deplete endogenous noradrenaline stores.. Rats were heparinized 1 U/g I.P. 30 minutes prior to killing by decapitation. Hearts were rapidly excised and immediately chilled in ice-cold saline. Under ice-cold solution, hearts were cannulated via the ascending aorta as described by Langendorff and perfused retrogradely at a rate of 5 ml/min with HEPES-buffered Krebs solution equilibrated with 5%CO2 -95%O2 at 37° C. Initial perfusion was in a non-recirculating manner to remove internal blood. Hearts were allowed to warm up gradually and, when free of internal blood, transferred to a 37° C. water-jacketed organ bath containing carbogenated Krebs medium, and perfusion continued in a recirculating manner. Following a 15 minute equilibration period, hearts were labelled with [^3 H]-inositol, 2 μCi/ml for 2 h. Hearts were monitored throughout the labelling period for strong rhythmic beating.
(§2) Following labelling, the [^3 H]-inositol-containing medium was removed, and replaced with Krebs medium containing propranolol (10^-6 M) and lithium chloride (50 mM) to block β-adrenergic receptors and to inhibit InsP metabolism by InsP 1'-phosphatase respectively (20). Hearts were perfused with propranolol, LiCi solution for 10 minutes prior to ischaemia. Antagonists, when administered, were included in this 10 minute preincubation. Normothermic global ischaemia was induced by terminating perfusion for various times up to 30 minutes. Reperfusion was examined following a 20 minute ischaemic period by resuming perfusion at 5 ml/min. Reactions were terminated by freezing hearts in liquid N2 following excision at the atrioventricular junction. Frozen ventricles were weighed and inositol phosphates extracted as described below.
(§3) Inositol phosphates were extracted from ventricle samples in 3.5 ml ice-cold 5% trichloroacetic acid (TCA), 2.5 mM EDTA, 5 mM phytate solution, as described previously (21). Briefly, ventricles were homogenised with two 10 second passes of a "Polytron" homogenizer separated by 15 second periods on ice. Samples were homogenised further using a Potter-Elvejheim homogeniser followed by brief sonication. Homogenised samples were centrifuged (5000 rpm, 10 min, 4° C.) to remove TCA insoluble material. Supernatants were collected, and the remaining pellet re-extracted in 1.5 ml TCA, EDTA, phytate. Supernatants were pooled and freon, tri-n-ocylamine (1:1 v/v 0.75 ml:1 ml TCA solution) was added, mixed thoroughly, and phases separated by low speed centrifugation (2000 rpm, 10 min 4° C.). The resultant aqueous phase, containing inositol phosphates was collected and treated with proteinase K (50 μg/ml, 2 hr, 50° C.). This process was necessary to preserve the chromatography column. Treated samples were passed through a 1 ml Dowex-50 column (4% cross-linked 4-400 mesh size) and eluted with 1 ml water (22). Urea (0.05 M final) was added (23) and samples lyophilized prior to high performance liquid chromatography (HPLC) analysis. Recovery of inositol phosphates using this method was greater than 95% for each isomer, as estimated by addition of [^3 H]-labelled standards to extractions of unlabelled hearts.
(§4) Inositol phosphates were separated by an anion-exchange HPLC system using a Whatman Partisil 10μ SAX column in a Waters Radial Compression Unit, employing a complex ammonium phosphate gradient, pH 3.8 from 0-2 M as described previously (24). Inositol phosphates were detected and quantitated using an on-line […] (model CR, Radiomatic Instruments) All peaks were identified by comparison with commercial standards. Nucleotide standards AMP, ADP, and ATP were run with samples to assess column performance.
(§5) Values presented are mean ±SEM, for n=4 unless otherwise stated. Statistical analysis of results involved Students' unpaired "t-test" for all InsP data.

[2] = test system: hearts from reserpinized rats; experiment: Arrhythmic effect of thrombin under reperfusion conditions, perfused hearts from reserpinized rats; design: species or system rat; settings: for VF% / VT%: n 9
Procedure: (§6) A model of in situ perfused rat hearts subjected to 20 minutes coronary artery occlusion to induce ischaemia, followed by reperfusion was used to investigate reperfusion-induced arrhythmias.
(§7) Rats (250-300 g) were anaesthetised (pentobarbitone 60 mg/kg, I.P.) and heparinised (200 U/rat I.V.) The thorax was then opened and a metal cannula (ID 1 mm) inserted and tied into the ascending aorta, to commence Langendorff perfusion in situ (31). The interval from opening the chest to commencing heart perfusion was between 50 and 70 seconds. The perfusate was Krebs buffer, with coronary flow controlled by a Ismatac peristaltic pump at a rate of 5 ml/g heart weight/min for the non-ischaemic perfusion. At this flow rate the coronary perfusion pressure was between 32-38 mmHg, measured by pressure transducer (Gould Statham model p23) connected to the sidearm of the perfusion line. Following aortic cancellation, pulmonary vessels were tied off. In some preparations, ventricular pressure was measured by inserting a Millar micro-tip transducer catheter into the left ventricular cavity via the apex. All parameters--coronary perfusion pressure, ventricular pressure, and epicardial ECG, were constantly recorded on a Grass model 7 polygraph. Two hearts were perfused and simultaneously studied.
(§8) A silk suture (4.0) was positioned loosely around the left coronary artery 2-3 mm from its origin. Two silk releasing rings were placed around the suture for subsequent release of occlusion. Successful occlusion of the artery, inducing regional ischaemia, was indicated by increases in coronary perfusion pressure of at least 30%. Perfusion pressure was adjusted to non-ischaemic perfusion levels during the ischaemic period.
(§9) Drugs were added to the perfusion via a Harvard Model 22 pump. The drug flow was less than 1% of perfusion flow to ensure constant perfusate parameters. Unless mentioned otherwise, the drugs were present 10 minutes before, and during the entire ischaemic and reperfusion periods.
(§10) Heart preparations were allowed to stabilise for at least 20 minutes prior to commencing studies. Following 10 minute drug incubation, the left coronary artery was ligated to induce local ischaemia, for a period of 20 minutes. At the end of this ischaemic period, the ligature was released and hearts perfused at pre-ischaemic flow for a period of 5 minutes. Ventricular arrhythmias, occurring during ischaemia or during the first 2 minutes of reperfusion were defined according to the Lambeth Conventions (32).
The finding that thrombin directly stimulated release of Ins(1,4,5)P3 in heart indicates the possibility that thrombin might cause arrhythmias directly via this mechanism. Experiments were performed using hearts from reserpinized rats so that arrhythmic events initiated by noradrenaline were eliminated. Reperfusion arrhythmias were not observed in hearts from reserpinized animals. […] Furthermore, these arrhythmias were inhibited by gentamicin, indicating a relationship to release of Ins(1,4,5)P3 (Table 2).

[3] = test system: Ins(1,4,5)P3 release; experiment: Ins(1,4,5)P3 mass in isolated perfused rat hearts, 2 min reperfusion after 20 min global ischaemia (competitive binding assay); settings: for Ins(1,4,5)P3 mass: control 200 ± 18
Procedure: as §1, §2, §3
Mass of Ins(1,4,5)P3 was measured using a competitive binding assay (Amersham TRK 1000) essentially as described previously (26). Ventricle samples were prepared as described above except for the omission of [^3 H]-label during the 2 hr perfusion of hearts prior to ischaemia, and for the use of 5 mm ATP instead of phytate in the extraction procedure.
Protein concentration was determined in aliquots of TCA pellet following InsP extraction using a modified Lowry method with Bovine Serum Albumin as a standard.
as §5

[4] = test system: in situ perfused rat hearts; settings: for Reperfusion-induced arrhythmias VF % incidence / Reperfusion-induced arrhythmias VT % incidence: control 83
Procedure: as §6, §7, §8, §9, §10
Incidence of arrhythmias was analysed using a .chi.^2 test, with n≥8 for each group.

[5] = test system: inositol phosphate accumulation in heart tissue; experiment: Inositol phosphate accumulation in healthy (normoxic) heart tissue; design: species or system rat; settings: healthy heart tissue
Procedure: as §1, §3, §4

[6] = test system: PI-PLC heart rep; experiment: Inhibition of PI-PLC in hearts under reperfusion conditions; design: species or system rat
Procedure: as §1, §2
Mass of Ins(1,4,5)P3 was measured using a competitive binding assay (Amersham TRK 1000) essentially as described previously (26). […]

[7] = test system: PI-PLC kidney cy; settings: cytosolic enzyme; from the literature (35); cited from earlier work
[8] = test system: PI-PLC kidney me; settings: membrane enzyme; from the literature (35); cited from earlier work
[9] = test system: Ins(1,4,5)P3 release; experiment: Thrombin-stimulated release of Ins(1,4,5)P3 in heart tissue
[10] = hearts from reserpinized rats, no thrombin
[11] = 0.5 mM, 2 min reperfusion after 20 min global ischaemia
[12] = 5 mM, 2 min reperfusion after 20 min global ischaemia
[13] = 25 μg/kg I.P. 48 h prior to experimentation
[14] = thrombin 2 U/ml in perfusate, reserpinized hearts

NC[C@H](O)c1ccc(O)c(O)c1 [noradrenaline]
release of [3H]-labelled Ins(1,4,5)P3 on reperfusion ([1]; 10^-4 M perfusion, reserpinized animals): reinstated

COc1cc2nc(N3CCN(C(=O)c4ccco4)CC3)nc(N)c2cc1OC [prazosin]
2 minute reperfusion inositol phosphate response ([1]; 10 μM): inhibited | redistribution of [3H]-labelled inositol phosphates under ischaemic conditions ([1]; global ischaemia, α1 adrenoceptor blockade): unaffected

COC(=O)[C@H]1[C@H]2C[C@@H]3c4[nH]c5cc(OC)ccc5c4CCN3C[C@H]2C[C@@H](OC(=O)c2cc(OC)c(OC)c(OC)c2)[C@@H]1OC [reserpine]
rapid accumulation of inositol phosphates at 2 minutes post-ischaemic reperfusion ([1]; prior reserpine treatment (5 mg/kg I.P. 18 hrs)): prevented | VF% [2, 10]: 0% | VT% [2, 10]: 44%

NCCCNCCCCNCCCN [spermine]
inhibition of reperfusion-induced Ins(1,4,5)P3 release [3]: inhibitory | Ins(1,4,5)P3 mass [3, 11]: 182 + 4 pmol/mg protein | Ins(1,4,5)P3 mass [3, 12]: 160 ± 9 pmol/mg protein | effect on reperfusion arrhythmias [4]: inhibited | Reperfusion-induced arrhythmias VF % incidence ([4]; 0.5 mM): 36% | Reperfusion-induced arrhythmias VT % incidence ([4]; 0.5 mM): 63% | Reperfusion-induced arrhythmias VF % incidence ([4]; 5 mM): 20% | Reperfusion-induced arrhythmias VT % incidence ([4]; 5 mM): 30%

CN[C@@H]1C[C@H]2O[C@@](C)([C@@H]1OC)n1c3ccccc3c3c4c(c5c6ccccc6n2c5c31)C(=O)NC4 [staurosporine]
percentage incidence of reperfusion-induced arrhythmias vs untreated controls ([4]; 10^-7 M): did not significantly alter | Reperfusion-induced arrhythmias VF % incidence ([4]; .1 μM): 69% | Reperfusion-induced arrhythmias VT % incidence ([4]; .1 μM): 83%

Pertussis toxin [PTX]
Ins(1,4,5)P3 mass [3, 13]: 128 ± 28 pmol/mg protein | Reperfusion-induced arrhythmias VF % incidence [4, 13]: 10% | Reperfusion-induced arrhythmias VT % incidence [4, 13]: 40%

neomycin
Ins(1,4,5)P3 mass ([3]; 0.05 mM, 2 min reperfusion after 20 min global ischaemia, mean±SEM, 4 hearts): 184 ± 7 pmol/mg protein | Ins(1,4,5)P3 mass [3, 11]: 121 ± 11 pmol/mg protein | Ins(1,4,5)P3 mass [3, 12]: 104 ± 12 pmol/mg protein | inhibition of accumulation of [3H]-labelled inositol phosphates ([1]; 0.05 mM, added 10 min prior to ischaemia, 2 min reperfusion): did not significantly inhibit | average inhibition of [3H]-labelled inositol phosphate accumulation ([1]; 0.5 mM): 45% | average inhibition of [3H]-labelled inositol phosphate accumulation ([1]; 5 mM): 55% | increase in sensitivity of myocardial tissue to neomycin during post-ischaemic reperfusion ([1]; reperfusion vs healthy heart): more than 10 fold | effect on accumulations of Inositol phosphate1 and Inositol phosphate2 ([5]; 5 mM): without effect | reduction in accumulation of [3H]Ins(1,4,5)P3 ([5]; 5 mM): 20% | effect on inositol phosphate accumulation ([5]; concentrations lower than 5 mM): ineffective | rats showing both severe VT and VF throughout reperfusion ([4]; 0.05 mM): 6 out of 8 | Reperfusion-induced arrhythmias VF % incidence ([4]; 0.05 mM): 70% | Reperfusion-induced arrhythmias VT % incidence ([4]; 0.05 mM): 75% | rats exhibiting VT or VF on reperfusion ([4]; 0.5 mM): none of the 10 rats | heart rate and ventricular pressure ([4]; 0.5 mM, after 10 minute incubation prior to occlusion): not significantly differing from control | Reperfusion-induced arrhythmias VF % incidence ([4]; 0.5 mM): 0% | Reperfusion-induced arrhythmias VT % incidence ([4]; 0.5 mM): 0% | Reperfusion-induced arrhythmias VF % incidence ([4]; 5 mM): 0% | Reperfusion-induced arrhythmias VT % incidence ([4]; 5 mM): 0% | pEC50 [6]: 3.40 | pEC50 [7]: 4.52 | pEC50 [8]: 3.70

thrombin
reperfusion arrhythmias ([2]; thrombin 2 U/ml added to perfusate, reserpinized hearts): high incidence | VF% [2, 14]: 67% | VT% [2, 14]: 89% | release of Ins(1,4,5)P3 in heart tissue [9]: directly stimulates release
